Literature values in patent publication US7897154B2, “Dermal drops” (ABR, LLC, priority 2006, dated 2011).

Assays:
[1] = tested on: H. ras transformed rat2 cells
[2] = animal models of non-insulin-dependent diabetes

dehydrotrametenolic acid [DHTA]
apoptosis [1]: induce apoptosis | growth [1]: inhibit the growth of H. ras | sensitization to insulin [2]: sensitize animal models of non-insulin-dependent diabetes to insulin | pre-adipocyte differentiation (pre-adipocyte): induce pre-adipocyte differentiation
